From patent US11123328B2 (UNIVERSITY HEALTH NETWORK, priority 2017, dated 2021)
“Also recorded” adds a separate entry of the source.

Experiments:
animal hearts = assay: Optical mapping and LVDP in hearts subjected to myopathic insults, azumolene pre-treated or not (Example 3); conditions: for calcium alternans ratio map values: scale 0.00 to 0.40
Protocol: FIGS. 6A and 6B are a schematic and images, respectively, of the experimental protocol of animal hearts, pre-treated or not with azumolene, subjected to myopathic insults.
The effect of azumolene was further investigated. Optical mapping and left ventricular developed pressure (LVDP) were measured at baseline and following inducement of myopathic insults to the hearts (see FIGS. 6A and 6B). […] FIGS. 8A and 8B show the occurrence of spatial dyssynchronic in untreated compared to azumolene-treated hearts.

[1] = tested on: Langendorff-perfused rabbit hearts; assay: Calcium alternans by optical mapping in Langendorff-perfused rabbit hearts stressed by VF (Example 1); conditions: for CaAR (calcium alternans ratio) / SD of CaAR (surrogate for spatial dyssynchrony): azumolene 20 μM; for SD of CaAR (surrogate for spatial dyssynchrony): n=8
Excerpt: The term “cardiac dyssynchrony” as used herein means improper synchronization of calcium cycling in the heart or a part thereof, including for example temporal dyssynchrony and/or spatial dyssynchrony, optionally due to calcium leak from ryanodine type 2 receptor (RyR2) channels, leading to decreased calcium uptake and/or release in the sarcoplasmic reticulum (SR). RyR2 are found primarily in cardiac muscle and are a major mediator for SR release of calcium ions. Spatio-temporal dyssynchrony of calcium alternans can be measured by calculating a calcium alternans ratio (CaAR) for temporal mechanical dyssynchrony or by measuring the standard deviation (SD) of CaAR as a surrogate for spatial mechanical dyssynchrony. CaAR can be calculated as the amplitude of a Ca peak divided by the amplitude of a following Ca peak in a calcium transient measurement such as in FIG. 5. The smallest amplitude of Ca peak is divided by the largest amplitude of Ca peak. The larger the ratio the more similar the peak sizes. A ratio of 1 indicates no calcium alternans. Ratios of less than 1, optionally 0.8, 0.7 etc are indicative of cardiac dyssynchrony. Similarly mean standard deviations in calcium alternans ratios of greater than 0.05, greater than 0.06 or greater than 0.07 etc are indicative of cardiac dyssynchrony.
Their effect on temporal calcium alternans ratio (CaAR) before and after ventricular fibrillation (VF) (as a surrogate for temporal mechanical dyssynchrony) and standard deviation (SD) of CaAR from the anterior wall of left ventricular, which is used as a surrogate for spatial mechanical dyssynchrony, were assessed. […] Simultaneous optical mapping was performed. Calcium alternans are defined as beat-to-beat variability of 10% or more in calcium transient amplitudes.

[2] = tested on: patients without known cardiac disease; assay: Safety of chronic oral dantrolene, 10-year experience: ECG and echocardiogram (Example 5)
Excerpt: If more than 1 electrocardiogram and/or echocardiogram were available for any single patient, all were studied (to assess for any abnormality), but only the latest (with the longest therapy duration) was included in the analysis.

[3] = tested on: ventricular arrhythmia swine model; conditions: previous work [4]; cited from earlier work
[4] = tested on: patients without known cardiac diseases; assay: Safety of chronic oral dantrolene: ECG, echo, Holter, stress test in patients (Example 4)
[5] = tested on: patients without known cardiac diseases; conditions: human, in vivo
[6] = azumolene pretreatment, following myopathic insults, FIG. 9
[7] = both, human, in vivo, 10.9 years

O=C1CN(/N=C/c2ncc(-c3ccc(Br)cc3)o2)C(=O)N1 [azumolene]
mean calcium alternans index (animal hearts; after myopathic insults, FIG. 7): untreated-hearts increased significantly compared to azumolene-treated hearts
LVDP (animal hearts; [6]): significantly improved
dp/dtmax (animal hearts; [6]): significantly improved
calcium alternans ratio map values (animal hearts; azumolene-treated heart at baseline, FIG. 8A): 0.025 to 0.05
calcium alternans ratio map values (animal hearts; azumolene-treated heart post myopathic insults, FIG. 8A): 0.05 to 0.1
mean of standard deviation (animal hearts; post myopathic insults, FIG. 8B): significantly increased in the control group post myopathic insults compared to the azumolene-treated group
spatial calcium release dyssynchrony (animal hearts; vs untreated hearts, FIG. 8A): reduce spatial calcium release dyssynchrony
heterogeneity in calcium alternans in response to myopathic stress [1]: minimizes heterogenity in calcium alternans
CaAR (calcium alternans ratio) ([1]; after 1st VF): 0.97±0.02
SD of CaAR (surrogate for spatial dyssynchrony) ([1]; after 1st VF): 0.025±0.003
CaAR (calcium alternans ratio) ([1]; after 2nd VF): 0.94±0.02
SD of CaAR (surrogate for spatial dyssynchrony) ([1]; after 2nd VF): 0.039±0.004
spatial calcium release dyssynchrony (calcium release tracings) ([1]; azumolene-treated vs untreated hearts after VF, FIG. 2): reduced spacial calcium release dyssynchrony; also recorded: spatial calcium release disordering is abrogated
calcium alternans in ratio maps ([1]; post 1st VF at 6.0 Hz, FIG. 5D vs 5B): fewer calcium alternans

O=C1CN(/N=C/c2ccc(-c3ccc([N+](=O)[O-])cc3)o2)C(O)=N1 [dantrolene]
Number of patients with PR >200 ms [2, 7]: 1 (5) n (%)
Number of patients with QTc >460 ms [2, 7]: 1 (5) n (%)
QTc of the patient with QTc >460 ms ([2]; female, human, in vivo): 465 ms
Absolute change in average PR ± SD ([2]; human, in vivo): 12 ± 8 (p = 0.14) ms
Absolute change in average QRS ± SD ([2]; human, in vivo): 4 ± 3, (p = 0.71) ms
Absolute change in average QTc ± SD ([2]; human, in vivo): 12 ± 17, (p = 0.27) ms
PR of the patient with PR >200 ms ([2]; human, in vivo): 222 ms
QRS or QTc prolongation ([2]; in vivo): did not have QRS or QTc prolongation
conduction and repolarization parameters ([2]; in vivo): within normal limits
dose-related QTc prolongation ([2]; in vivo): No dose-related QTc prolongation
left ventricular (LV) size and systolic function ([2]; in vivo): normal
rhythm in electrocardiograms ([2]; in vivo): sinus rhythm
major cardiac events (serious arrhythmia, sudden death, or myocardial infarction) ([2]; mean 10.9±6 years follow-up): no major cardiac events
effect on the QT [3]: did not affect the QT
PR ([4]; chronic oral dantrolene (>3 months)): 173 ± 19 ms
major cardiac events (life-threatening arrhythmia, sudden death, myocardial infarction) ([4]; during dantrolene therapy, most >5 years): No major cardiac events
LV size and function [5]: normal
arrhythmia in Holter or stress tests [5]: No major arrhythmia
rest of the depolarization and repolarization parameters [5]: within normal limits
rhythm in ECGs [5]: sinus rhythm
JTc ([5]; po): 304 ± 79 ms
QRS ([5]; po): 98 ± 10 ms
QRS or QTc prolongation, arrhythmia, pauses, significant cardiac events ([5]; po): did not have QRS or QTc prolongation, arrhythmia, pauses, or significant cardiac events
effect on LV systolic function ([5]; po): No detrimental effect
mean heart rate ([5]; po): 67 (±14)
heterogeneity in calcium alternans in response to myopathic stress [1]: minimizes heterogenity in calcium alternans
